52 molecules from US10919902B2, “Hetero-halo inhibitors of histone deacetylase” (Alkermes, Inc., priority 2015, dated 2021) can be followed below.

SMILES strings stand for the structures.

The first assay addresses recombinant human HDACs (Homo sapiens). The experiment in a line: HDAC enzymatic assay. Conditions: 5 nM HDAC enzyme, 5 h pre-incubation, 17 h reaction at 25° C.; isoform not given. The assay is classed as biochemical. Here is the method:
All recombinant human HDACs were purchased from BPS Bioscience. The substrate, FAM-TSRHK(AC)KL-CONH, was synthesized at NanoSyn. Final assay reactions contained 100 mM HEPES (pH 7.5), 50 mM KCl, 0.1% BSA, 0.01% Triton X-100, 1% DMSO, 1 uM substrate and 5 nM HDAC enzyme. Enzyme and compounds were pre-incubated at 25° C. for 5 hours and reactions were initiated by addition of substrate. 10 uL reactions were incubated for 17 hours at 25° C. and terminated by the addition of 40 uL of buffer containing 100 mM HEPES (pH 7.5), 0.1% BSA, 0.01% Triton X-100 and 0.05% SDS. Substrate and product peptides present in each sample were separated electrophoretically using the LabChip 3000 capillary electrophoresis instrument. Change in the relative fluorescence intensity of the substrate and product peaks reflects enzyme activity. Reaction progress was determined as the product to sum ratio (PSR):P/(S+P), where P is the peak height of the product peptide and S is the peak height of the substrate peptide. Reactions were performed in duplicate at 12 concentrations, (3× serial dilutions starting at 30 uM). IC50 values were calculated using a 4 Parameter Logistic Model.
As usually defined, the IC50 is the concentration that gives 50% inhibition. For the molecule `COCc1cc2c(cn1)CN(C(=O)Nc1nc(-c3ccc(F)cc3)ccc1N)C2` [Compound 243], the IC50 lay in the range of 100 to 500 nM.
For `Cn1cc2c(n1)CN(C(=O)Nc1nc(-c3ccc(F)cc3)ccc1N)C2` [Compound 257], the IC50 was 100 to 500 nM.

The same assay, now with this note: 5 nM HDAC enzyme, 5 h pre-incubation, 17 h reaction at 25° C.; isoform not given; read-out: IC50.
As to `Nc1ccc(-c2cccnc2)nc1NC(=O)c1cn2c(n1)CNCC2` [Compound 219], the IC50 is over 5000 nM.
The same measure, in the same setting: in the case of `Nc1ccc(-c2cccnc2)nc1NC(=O)N1CC2(CCNCC2)C1` [Compound 220] it was over 5000 nM; in that of `Nc1ccc(-c2cccnc2)nc1NC(=O)N1CCCC1` [Compound 221], over 5000 nM; in that of `COc1cccc(CN2CCCC3(CCN(C(=O)Nc4nc(-c5ccc(F)cc5)ccc4N)C3)C2)c1` (stereo not shown) [Compound 222], over 5000 nM.
In the case of `Cn1cc(CN2CCCC3(CCC(C(=O)Nc4nc(-c5ccc(F)cc5)ccc4N)C3)C2)cn1` (stereo not shown) [Compound 223], the IC50 was over 5000 nM.
The same measure, in the same setting: in the case of `Nc1ccc(-c2ccc(F)cc2)nc1NC(=O)N1CCN2CCCC2C1` (stereo not shown) [Compound 224] it was over 5000 nM; in that of `Nc1ccc(-c2ccc(F)cc2)nc1NC(=O)N1CCN(C(=O)C2C[C@H]2c2ccccc2)CC1` (stereo partly shown) [Compound 225], 500 to 5000 nM; in that of `Cc1cnc(C(=O)Nc2nc(-c3ccc(F)cc3)ccc2N)s1` [Compound 226], 100 to 500 nM.
For `Nc1ccc(-c2ccc(OC(F)F)cc2)nc1NC(=O)N1Cc2nccnc2C1` [Compound 228], the IC50 fell in the range of 500 to 5000 nM.
With `Nc1ccc(-c2ccc(OC(F)F)cc2)nc1NC(=O)N1CCCC1` [Compound 232], the IC50 was in the range of 500 to 5000 nM.
In the case of `Nc1ccc(-c2ccc(F)cc2)nc1NC(=O)N1CC2CN(CC3CCOCC3)CC2C1` (stereo not shown) [Compound 235], the half-maximal inhibitory concentration (IC50) was over 5000 nM.
As for `Nc1ccc(-c2ccc(F)cc2)nc1NC(=O)N1CC2CN(C3CCOCC3)CC2C1` (stereo not shown) [Compound 236], the 50% inhibitory concentration (IC50) is over 5000 nM.
For `CN(C1CCOC1)C1CC2CN(C(=O)Nc3nc(-c4ccc(F)cc4)ccc3N)CC2C1` (stereo not shown) [Compound 237], the concentration for half-maximal inhibition (IC50) is over 5000 nM.
Regarding `Nc1ccc(-c2ccc(F)cc2)nc1NC(=O)N1C[C@@H]2[C@@H](CO)[C@@H]2C1` [Compound 238], the half-inhibitory concentration (IC50) was in the range of 500 to 5000 nM.
On the same count and under the same terms, in the case of `Nc1ccc(-c2ccc(F)cc2)nc1NC(=O)C1[C@H]2CN(C3COC3)C[C@@H]12` (stereo partly shown) [Compound 239] it was over 5000 nM; in that of `Nc1ccc(-c2ccc(F)cc2)nc1NC(=O)N1Cc2cnc(C3CCOCC3)cc2C1` [Compound 240], 100 to 500 nM.
In the case of `CN1CC(N2C[C@@H]3C(C(=O)Nc4nc(-c5ccc(F)cc5)ccc4N)[C@@H]3C2)C1` (stereo partly shown) [Compound 241], the IC50 was over 5000 nM.
On the same count and under the same terms, in the case of `CN(C)[C@H]1[C@@H]2CN(C(=O)Nc3nc(-c4ccc(F)cc4)ccc3N)C[C@@H]21` [Compound 242] it was over 5000 nM; in that of `CN1CC(Cn2ncc3c2CN(C(=O)Nc2nc(-c4ccc(F)cc4)ccc2N)C3)C1` [Compound 244], 500 to 5000 nM.
`CN1CC(Cn2cc3c(n2)CN(C(=O)Nc2nc(-c4ccc(F)cc4)ccc2N)C3)C1` [Compound 245]: the IC50 lay in the range of 100 to 500 nM.
The same measure, in the same setting: in the case of `CN1CC(n2ncc3c2CN(C(=O)Nc2nc(-c4ccc(F)cc4)ccc2N)C3)C1` [Compound 246] it was over 5000 nM; in that of `CN1CC(n2cc3c(n2)CN(C(=O)Nc2nc(-c4ccc(F)cc4)ccc2N)C3)C1` [Compound 247], 100 to 500 nM; in that of `CN(C1COC1)C1CC2CN(C(=O)Nc3nc(-c4ccc(F)cc4)ccc3N)CC2C1` (stereo not shown) [Compound 248], 500 to 5000 nM.
`Nc1ccc(-c2ccc(F)cc2)nc1NC(=O)N1Cc2cccc(N3CCCC3)c2C1` [Compound 249]: the IC50 was over 5000 nM.
With `CN1CCC(c2cnc3c(c2)CN(C(=O)Nc2nc(-c4cccs4)ccc2N)C3)CC1` [Compound 250], the half-maximal inhibitory concentration (IC50) was in the range of 100 to 500 nM.
Still for that read-out and setting: in the case of `CN1CCC(c2cnc3c(c2)CN(C(=O)Nc2nc(-c4ccc(F)cc4)ccc2N)C3)CC1` [Compound 252] it was 100 to 500 nM; in that of `Nc1ccc(-c2ccc(F)cc2)nc1NC(=O)N1Cc2cc(N3CCC3)cnc2C1` [Compound 254], 500 to 5000 nM.
Consider `Nc1ccc(-c2ccc(F)cc2)nc1NC(=O)N1Cc2cc(C3CC3)cnc2C1` [Compound 255], for which the IC50 fell in the range of 100 to 500 nM.
For `CN1CC(CN2CC3CC(C(=O)Nc4nc(-c5ccc(F)cc5)ccc4N)CC3C2)C1` (stereo not shown) [Compound 256], the half-maximal inhibitory concentration (IC50) lay in the range of 500 to 5000 nM.
Same read-out and setting: in the case of `Cn1ncc2c1CN(C(=O)Nc1nc(-c3ccc(F)cc3)ccc1N)C2` [Compound 258] it was 500 to 5000 nM; in that of `Nc1ccc(-c2ccc(F)cc2)nc1NC(=O)N1Cc2cccc(F)c2C1` [Compound 259], 100 to 500 nM; in that of `COc1cc2c(cn1)CN(C(=O)Nc1nc(-c3ccc(F)cc3)ccc1N)C2` [Compound 260], 100 to 500 nM.
`Cc1cc(F)ccc1-c1ccc(N)c(NC(=O)N2Cc3cnc(CN(C)C)cc3C2)n1` [Compound 261]: the half-inhibitory concentration (IC50) was over 5000 nM.
Same read-out and setting: in the case of `CN(C1COC1)[C@H]1[C@@H]2CN(C(=O)Nc3nc(-c4ccc(F)cc4)ccc3N)C[C@@H]21` [Compound 262] it was over 5000 nM; in that of `Nc1ccc(-c2ccc(F)cc2)nc1NC(=O)C1[C@H]2CN(C3CCOCC3)C[C@@H]12` (stereo partly shown) [Compound 264], over 5000 nM.
As for `CN1CCC(c2cnc3c(c2)CN(C(=O)Nc2nc(-c4cccnc4)ccc2N)C3)CC1` [Compound 265], the half-maximal inhibitory concentration (IC50) lay in the range of 500 to 5000 nM.
On the same count and under the same terms, in the case of `Nc1ccc(-c2ccc(F)cc2)nc1NC(=O)N1Cc2cc(CN3CC(F)(F)C3)cnc2C1` [Compound 266] it was 500 to 5000 nM.
Take `Nc1ccc(-c2ccc(F)cc2)nc1NC(=O)N1C[C@@H]2[C@H](C1)[C@H]2NC1COC1` [Compound 267]: the half-maximal inhibitory concentration (IC50) was over 5000 nM.
The same measure, in the same setting: in the case of `CN1CC(CN2C[C@@H]3[C@H](C2)[C@H]3C(=O)Nc2nc(-c3ccc(F)cc3)ccc2N)C1` [Compound 268] it was over 5000 nM.
For `CN1CCN(C[C@@H]2[C@H]3CN(C(=O)Nc4nc(-c5ccc(F)cc5)ccc4N)C[C@@H]23)CC1` [Compound 269], the IC50 is over 5000 nM.
The same measure, in the same setting: in the case of `Nc1ccc(-c2ccc(F)cc2)nc1NC(=O)N1C[C@@H]2[C@@H](CN3CCC3)[C@@H]2C1` [Compound 270] it was over 5000 nM.
For the molecule `Nc1ccc(-c2ccc(F)cc2)nc1NC(=O)N1Cc2cc(CN3CCC3)cnc2C1` [Compound 272], the half-inhibitory concentration (IC50) was 100 to 500 nM.
On the same count and under the same terms, in the case of `Nc1ccc(-c2ccc(F)cc2)nc1NC(=O)N1Cc2cc(CN3CCC(F)(F)C3)cnc2C1` [Compound 273] it was 100 to 500 nM; in that of `CC(C)Cc1cnc2c(c1)CN(C(=O)Nc1nc(-c3ccc(F)cc3)ccc1N)C2` [Compound 274], 100 to 500 nM.
Turning to `Nc1ccc(-c2ccc(F)cc2)nc1NC(=O)N1Cc2cc(CN3CC(F)C3)cnc2C1` [Compound 275], the concentration for half-maximal inhibition (IC50) fell in the range of 100 to 500 nM.
Still for that read-out and setting: in the case of `COC[C@@H]1[C@H]2CN(C(=O)Nc3nc(-c4ccc(F)cc4)ccc3N)C[C@@H]12` [Compound 276] it was 500 to 5000 nM; in that of `Nc1ccc(-c2ccc(F)cc2)nc1NC(=O)N1Cc2cncnc2C1` [Compound 277], 500 to 5000 nM.
Take `Nc1cn(-c2ccccc2)nc1NC(=O)N1Cc2ccc(CO)cc2C1` [Compound 350]: the IC50 is 500 to 5000 nM.
On the same count and under the same terms, in the case of `CN(C)Cc1ccc2c(c1)CN(C(=O)Nc1nn(-c3ccccc3)cc1N)C2` [Compound 351] it was 100 to 500 nM; in that of `CN1CCN(c2ccc3c(c2)CN(C(=O)Nc2nn(-c4ccccc4)cc2N)C3)CC1` [Compound 352], 500 to 5000 nM.
